Counter-ions that a name gives are not always drawn.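 Where inhibition never reached the appropriate level, the endpoint shown equals the highest concentration tested. Otherwise, values were interpolated linearly from a five-concentration, 48-hour dose response in 96-well plates. Abbreviation: GI50, concentration required for 50% inhibition of growth.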 Activity calls are given as the source filed them. Cut-off read from the data, not from the text of the source: active = GI50 up to about 1.1 µM and inactive = higher.
Assays:
Assay in all cases: NCI-60 cell line screen, 48 h
NCI/ADR-RES = system: NCI/ADR-RES
SK-MEL-2 = system: SK-MEL-2
UACC-257 = system: UACC-257
COLO 205 = system: COLO 205
HOP-62 = system: HOP-62
SF-268 = system: SF-268
SK-MEL-28 = system: SK-MEL-28
CAKI-1 = system: CAKI-1
786-0 = system: 786-0
OVCAR-3 = system: OVCAR-3
NCI-H226 = system: NCI-H226
MDA-MB-435 = system: MDA-MB-435
K562 = system: K562
NCI-H23 = system: NCI-H23
UACC-62 = system: UACC-62
BT-549 = system: BT-549
HCT-15 = system: HCT-15
PC-3 = system: PC-3
ACHN = system: ACHN
M14 = system: M14
U-251 = system: U-251
T47D = system: T47D
Hs-578T = system: Hs-578T
NCI-H460 = system: NCI-H460
SK-OV-3 = system: SK-OV-3
TK-10 = system: TK-10
SR = system: SR
MCF7 = system: MCF7
OVCAR-4 = system: OVCAR-4
LOX IMVI = system: LOX IMVI
RXF 393 = system: RXF 393
MOLT-4 = system: MOLT-4
SF-295 = system: SF-295
RPMI-8226 = system: RPMI-8226
SW-620 = system: SW-620
HCT-116 = system: HCT-116
KM12 = system: KM12
DU-145 = system: DU-145
MDA-MB-231 = system: MDA-MB-231
OVCAR-8 = system: OVCAR-8
OVCAR-5 = system: OVCAR-5
A549 = system: A549
SNB-19 = system: SNB-19
HCC 2998 = system: HCC 2998
UO-31 = system: UO-31
A498 = system: A498
MDA-N = system: MDA-N
SN12C = system: SN12C
SNB-75 = system: SNB-75
SK-MEL-5 = system: SK-MEL-5
Malme-3M = system: Malme-3M
NCI-H522 = system: NCI-H522
IGROV-1 = system: IGROV-1
HOP-92 = system: HOP-92
HT-29 = system: HT-29
HL-60 = system: HL-60
EKVX = system: EKVX
CCRF-CEM = system: CCRF-CEM
SF-539 = system: SF-539

Measured: GI50

COc1ccc(N2C(=O)C3CC4=CC(=O)C[C@H]4[C@H]32)cc1 (some centres not stated)
40.9 µM: HCT-15
inactive: NCI/ADR-RES 44.1 µM | SK-MEL-2 > 100 µM | UACC-257 64.9 µM | COLO 205 52.5 µM | HOP-62 44.9 µM | SF-268 > 100 µM | SK-MEL-28 > 100 µM | CAKI-1 23.4 µM | 786-0 26.3 µM | OVCAR-3 57.7 µM | NCI-H226 42.8 µM | MDA-MB-435 22.9 µM | K562 64.9 µM | NCI-H23 > 100 µM | UACC-62 45.2 µM | BT-549 14.9 µM | PC-3 28.4 µM | ACHN 53.7 µM | M14 > 100 µM | U-251 67.9 µM | T47D > 100 µM | Hs-578T > 100 µM | NCI-H460 58.2 µM | SK-OV-3 > 100 µM | TK-10 58.7 µM | SR 55.7 µM | MCF7 67.6 µM | OVCAR-4 > 100 µM | LOX IMVI 53.1 µM | RXF 393 82 µM | MOLT-4 > 100 µM | SF-295 > 100 µM | RPMI-8226 59.8 µM | SW-620 66.1 µM | HCT-116 20.7 µM | KM12 44 µM | DU-145 75.9 µM | MDA-MB-231 > 100 µM | OVCAR-8 49.4 µM | OVCAR-5 88.1 µM | A549 > 100 µM | SNB-19 > 100 µM | HCC 2998 45.1 µM | UO-31 37.2 µM | A498 > 100 µM | MDA-N 18.5 µM | SN12C 29.4 µM | SNB-75 93.5 µM

COC(=O)[C@H](Cc1c[nH]c2ccccc12)NC(=O)c1ccccc1I
> 100 µM: HCT-15
inactive: SK-MEL-5 16.1 µM | Malme-3M 18.7 µM | NCI/ADR-RES 32.1 µM | SK-MEL-2 19.9 µM | UACC-257 18.8 µM | COLO 205 17.5 µM | HOP-62 30.5 µM | SF-268 19.8 µM | SK-MEL-28 89.3 µM | CAKI-1 20.7 µM | 786-0 16.1 µM | OVCAR-3 13.6 µM | NCI-H522 15.6 µM | NCI-H226 26.8 µM | MDA-MB-435 25.4 µM | K562 29.3 µM | UACC-62 18.2 µM | IGROV-1 31.8 µM | BT-549 > 100 µM | HOP-92 16.9 µM | PC-3 24.6 µM | ACHN 17.1 µM | M14 15.7 µM | U-251 31 µM | T47D 22.6 µM | Hs-578T 9.84 µM | NCI-H460 24.8 µM | SK-OV-3 33.6 µM | HT-29 23.7 µM | TK-10 24.4 µM | SR 24.2 µM | MCF7 37.8 µM | OVCAR-4 30 µM | HL-60 24.9 µM | LOX IMVI 19.7 µM | RXF 393 18.7 µM | MOLT-4 17.5 µM | SF-295 42.4 µM | SW-620 31.5 µM | HCT-116 16.3 µM | KM12 41.4 µM | DU-145 21.8 µM | MDA-MB-231 29.1 µM | OVCAR-8 31.7 µM | OVCAR-5 > 100 µM | A549 > 100 µM | SNB-19 > 100 µM | EKVX > 100 µM | HCC 2998 26.4 µM | UO-31 19.3 µM | A498 18.5 µM | MDA-N 8.41 µM | SN12C > 100 µM | SNB-75 11.8 µM

CC(C)=CCc1c(O)c(CC=C(C)C)c2oc3c(c(=O)c2c1O)C(C=C(C)C)Oc1cc(O)ccc1-3 (configuration not stated)
5.05 µM: HCT-15
inactive: SK-MEL-5 8.53 µM | Malme-3M 20.7 µM | NCI/ADR-RES 12.1 µM | SK-MEL-2 2.92 µM | UACC-257 14 µM | COLO 205 16 µM | HOP-62 12.5 µM | SF-268 6.07 µM | SK-MEL-28 7.53 µM | CAKI-1 5.87 µM | 786-0 6.98 µM | OVCAR-3 4.18 µM | NCI-H522 3.9 µM | NCI-H226 20.5 µM | MDA-MB-435 3.53 µM | K562 3.98 µM | NCI-H23 4.67 µM | UACC-62 6.37 µM | IGROV-1 7.53 µM | BT-549 12.2 µM | HOP-92 13.5 µM | PC-3 5.41 µM | ACHN 4.49 µM | M14 7.69 µM | U-251 4.78 µM | T47D 3.5 µM | Hs-578T 12 µM | NCI-H460 4.49 µM | SK-OV-3 14.7 µM | HT-29 10.3 µM | TK-10 4.17 µM | SR 2.49 µM | MCF7 4.98 µM | OVCAR-4 7.14 µM | HL-60 5.85 µM | LOX IMVI 5.15 µM | RXF 393 3.12 µM | MOLT-4 3.84 µM | SF-295 5.97 µM | RPMI-8226 3.76 µM | SW-620 4.17 µM | HCT-116 3.74 µM | KM12 2.94 µM | DU-145 10.4 µM | MDA-MB-231 12.4 µM | OVCAR-8 6.85 µM | OVCAR-5 18.5 µM | A549 5.2 µM | SNB-19 10.5 µM | EKVX 3.88 µM | UO-31 4.19 µM | A498 16.2 µM | MDA-N 3.32 µM | SN12C 6.9 µM | SNB-75 4.07 µM | SF-539 11.7 µM
active: CCRF-CEM 0.804 µM

Cc1nc2c(Cl)cc(Cl)cc2c(Cl)c1CCCl
inactive: SK-MEL-5 45.8 µM | Malme-3M > 100 µM | NCI/ADR-RES 72.3 µM | SK-MEL-2 99.5 µM | UACC-257 > 100 µM | COLO 205 > 100 µM | HOP-62 > 100 µM | SF-268 75.2 µM | SK-MEL-28 > 100 µM | CAKI-1 64 µM | CCRF-CEM 62.8 µM | 786-0 > 100 µM | OVCAR-3 > 100 µM | NCI-H522 87.1 µM | NCI-H226 > 100 µM | MDA-MB-435 74.6 µM | K562 80.5 µM | NCI-H23 > 100 µM | UACC-62 79.6 µM | IGROV-1 > 100 µM | BT-549 51.1 µM | PC-3 60.5 µM | ACHN > 100 µM | M14 > 100 µM | U-251 > 100 µM | T47D 52.8 µM | Hs-578T 51.4 µM | NCI-H460 > 100 µM | SK-OV-3 > 100 µM | HT-29 78.7 µM | TK-10 32.4 µM | SR 79.1 µM | MCF7 > 100 µM | HL-60 55.2 µM | LOX IMVI > 100 µM | RXF 393 22.8 µM | MOLT-4 55 µM | SF-295 > 100 µM | RPMI-8226 57.5 µM | SW-620 > 100 µM | HCT-116 76 µM | KM12 > 100 µM | DU-145 > 100 µM | MDA-MB-231 69.5 µM | OVCAR-8 > 100 µM | OVCAR-5 78.3 µM | A549 78.7 µM | SNB-19 56.4 µM | EKVX 78.2 µM | HCC 2998 > 100 µM | UO-31 30.1 µM | A498 72.4 µM | MDA-N > 100 µM | SN12C > 100 µM | SNB-75 42.9 µM | SF-539 > 100 µM
60.5 µM: HCT-15

CCc1ccc2c(c1)N(CC(C)CN(C)C)c1ccccc1S2 (configuration not stated) [ETYMEMAZINE HYDROCHLORIDE]
active: K562 0.37 µM | SR 0.298 µM | MOLT-4 0.736 µM
6.21 µM: HCT-15
inactive: SK-MEL-5 3.78 µM | Malme-3M 4.11 µM | NCI/ADR-RES 5.22 µM | SK-MEL-2 5.08 µM | UACC-257 2.74 µM | COLO 205 3.29 µM | HOP-62 6.38 µM | SF-268 7.5 µM | SK-MEL-28 2.21 µM | CAKI-1 5.06 µM | CCRF-CEM 2.18 µM | 786-0 4.7 µM | OVCAR-3 4.88 µM | NCI-H522 2.87 µM | NCI-H226 9.86 µM | MDA-MB-435 2.87 µM | NCI-H23 7.64 µM | UACC-62 5.31 µM | IGROV-1 4.98 µM | BT-549 12.9 µM | HOP-92 4.66 µM | PC-3 4.93 µM | ACHN 5.21 µM | M14 2.12 µM | U-251 5.12 µM | T47D 3.66 µM | Hs-578T 6.01 µM | NCI-H460 3.33 µM | SK-OV-3 6.53 µM | HT-29 3.12 µM | TK-10 4.81 µM | MCF7 3.92 µM | OVCAR-4 5.16 µM | HL-60 2.65 µM | LOX IMVI 3.54 µM | RXF 393 2.79 µM | SF-295 9.64 µM | RPMI-8226 2.17 µM | SW-620 5.53 µM | HCT-116 3.65 µM | KM12 3.61 µM | DU-145 7.91 µM | MDA-MB-231 4.89 µM | OVCAR-8 7.94 µM | OVCAR-5 4.98 µM | A549 8.39 µM | SNB-19 10.6 µM | EKVX 11.4 µM | UO-31 2.73 µM | A498 7.38 µM | MDA-N 5.5 µM | SN12C 7.21 µM | SNB-75 3 µM | SF-539 10.2 µM
